24 molecules from US20250026743A1, “HETEROARYL-LINKED ANALOGS AS MGLU5 NEGATIVE ALLOSTERIC MODULATORS AND METHODS OF MAKING AND USING THE SAME” (Vanderbilt University, priority 2021, published 2025) can be followed below.

In this test the target is T1, hmGlu5 (Homo sapiens, UniProt P41594).
T1 construct: expressed in transfected cells; host or cells: HEK 293A
Kind of test: mGlu5 Ca2+ flux assay in HEK 293A cells (negative allosteric modulation of glutamate EC80 response). The class given is cell-based. The conditions noted are these: for remaining activity at 30 µM: HEK293-A, % Glu max at 30 μM, read-out: hmGlu5 NAM Emin (%); for IC50: HEK 293A cells, Ca2+ flux, glutamate EC80, >10,000 = decrease without plateau, read-out: hmGlu5 NAM IC50. The procedure: HEK 293A cells stably expressing either rat or human mGlu5 were plated in black-walled, clear-bottomed, poly-D-lysine coated 384-well plates in 20 μL of assay medium (DMEM containing 10% dialyzed FBS, 20 mM HEPES, 100 units/mL penicillin/streptomycin plus 250 ng/mL Fungizone, and 1 mM sodium pyruvate) at a density of 20K cells/well. The cells were grown overnight at 37° C. in the presence of 5% CO2. The next day, medium was removed and the cells incubated with 20 μL of 2.3 μM Fluo-4, AM prepared as a 2.3 mM stock in DMSO and mixed in a 1:1 ratio with 10% (w/v) pluronic acid F-127 and diluted in assay buffer (Hank's balanced salt solution, 20 mM HEPES, and 2.5 mM probenecid) for 45 minutes at 37° C. Dye was removed, 20 μL of assay buffer was added, and the plate was incubated for 5 minutes at room temperature.
Ca^2+ flux was measured using the Functional Drug Screening System (FDSS7000, Hamamatsu, Japan). After establishment of a fluorescence baseline for about 3 seconds, the compounds of the present invention were added to the cells, and the response in cells was measured. 2.3 minutes later an EC20 concentration of the mGlu5 receptor agonist glutamate was added to the cells, and the response of the cells was measured for 1.9 minutes; an EC80 concentration of agonist was added and readings taken for an additional 1.7 minutes. All test compounds were dissolved and diluted to a concentration of 10 mM in 100% DMSO. Compounds were then serially diluted 1:3 in DMSO into 10 point concentration response curves, transferred to daughter plates, and further diluted into assay buffer to a 2× stock. Calcium fluorescence measures were recorded as fold over basal fluorescence; raw data was then normalized to the maximal response to glutamate. Antagonism of the agonist response of the mGlu5 receptor in the present invention was observed as a decrease in response to nearly maximal concentrations of glutamate in the presence of compound compared to the response to glutamate in the absence of compound.
The raw data file containing all time points was used as the data source in the analysis template. This was saved by the FDSS as a tab-delimited text file. Data were normalized using a static ratio function (F/F0) for each measurement of the total 360 values per well divided by each well's initial value. Data were then reduced to peak amplitudes (Max−Initial Min) using a time range that starts approximately 3 seconds prior to the glutamate EC20/EC80 addition and continues for approximately 90-120 seconds. This is sufficient time to capture the peak amplitude of the cellular calcium response. Individual amplitudes were expressed as % EMax by multiplying each amplitude by 100 and then dividing the product by the mean of the amplitudes derived from the glutamate ECMax-treated wells. IC50 values for test compounds were generated by fitting the normalized values versus the log of the test compound concentration (in mol/L) using a 4 parameter logistic equation where none of the parameters were fixed. Each of the three values collected at each concentration of test compound were weighted evenly.
For NAMs with a CRC that plateaus above 10% Glu Max, the IC50 values are reported, the compound is designated a “partial NAM” and the % Glu Max is reported. […] Compounds without measurable activity are designated as “>30,000 nM” since the top concentration of compound tested in the assay is 30 μM. […]
Background: Calcium flux is commonly read through the fluorescence of an indicator in the cells.

T1 sequence (P41594 21-1212): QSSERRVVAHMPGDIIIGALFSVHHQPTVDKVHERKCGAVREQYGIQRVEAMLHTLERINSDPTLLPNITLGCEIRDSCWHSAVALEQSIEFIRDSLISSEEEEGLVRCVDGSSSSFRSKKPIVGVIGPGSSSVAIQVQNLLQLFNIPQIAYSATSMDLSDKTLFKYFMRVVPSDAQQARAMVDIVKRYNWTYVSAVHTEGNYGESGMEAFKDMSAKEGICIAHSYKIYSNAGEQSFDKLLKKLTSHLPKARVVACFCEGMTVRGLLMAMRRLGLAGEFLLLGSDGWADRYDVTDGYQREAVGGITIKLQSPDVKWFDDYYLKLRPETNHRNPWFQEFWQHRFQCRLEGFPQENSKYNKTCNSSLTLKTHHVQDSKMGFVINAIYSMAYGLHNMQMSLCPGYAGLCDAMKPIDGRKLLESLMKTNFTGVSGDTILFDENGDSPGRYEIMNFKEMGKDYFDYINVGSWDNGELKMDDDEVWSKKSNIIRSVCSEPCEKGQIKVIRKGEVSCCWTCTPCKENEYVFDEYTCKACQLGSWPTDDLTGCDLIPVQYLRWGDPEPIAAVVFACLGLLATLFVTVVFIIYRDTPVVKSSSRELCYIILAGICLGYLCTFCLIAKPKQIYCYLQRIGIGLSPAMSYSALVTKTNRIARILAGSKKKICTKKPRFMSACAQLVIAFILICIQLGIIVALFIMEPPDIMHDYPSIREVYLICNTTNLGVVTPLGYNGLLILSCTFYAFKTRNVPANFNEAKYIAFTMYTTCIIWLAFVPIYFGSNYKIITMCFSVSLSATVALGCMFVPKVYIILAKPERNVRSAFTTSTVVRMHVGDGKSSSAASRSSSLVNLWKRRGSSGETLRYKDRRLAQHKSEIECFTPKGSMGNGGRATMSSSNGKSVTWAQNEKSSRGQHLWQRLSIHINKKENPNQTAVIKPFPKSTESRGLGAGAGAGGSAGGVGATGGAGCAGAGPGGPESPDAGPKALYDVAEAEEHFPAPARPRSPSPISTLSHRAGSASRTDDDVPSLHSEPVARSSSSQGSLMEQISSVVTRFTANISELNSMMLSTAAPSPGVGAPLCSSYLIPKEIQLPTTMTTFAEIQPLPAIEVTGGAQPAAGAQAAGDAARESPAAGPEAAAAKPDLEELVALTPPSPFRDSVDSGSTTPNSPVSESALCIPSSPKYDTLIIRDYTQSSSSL

In the case of `Cc1nc(-c2noc(-c3ccc(F)cn3)n2)cc(-c2cc(F)cc(F)c2)c1F` [Compound 67, 3-(4-(3,5-difluorophenyl)-5-fluoro-6-methylpyridin-2-yl)-5-(5-fluoropyridin-2-yl)-1,2,4-oxadiazole], the remaining activity at 30 µM was found to be 3% and the IC50 – broadly, the point on the concentration scale where inhibition reaches its midpoint – worked out at 161 nM.

As for `Cc1ccncc1-c1cc(-c2noc(-c3cccc(C#N)c3)n2)nc(C)c1F` [Compound 24, 3-(3-(5′-fluoro-4,6′-dimethyl-[3,4′-bipyridin]-2′-yl)-1,2,4-oxadiazol-5-yl)benzonitrile], the remaining activity at 30 µM came out at 2% and the IC50 came out at 85 nM.

On to `CCn1cc(-c2cc(-c3nnc(-c4ccc(F)cn4)o3)nc(C)c2F)cn1` [Compound 75, 2-(4-(1-ethyl-1H-pyrazol-4-yl)-5-fluoro-6-methylpyridin-2-yl)-5-(5-fluoropyridin-2-yl)-1,3,4-oxadiazole], for which the remaining activity at 30 µM amounted to 2% and the IC50 amounted to 591 nM.

`Cc1nc(-c2nc(-c3ccc(F)cc3)no2)cc(-c2cncc(F)c2)c1F` [Compound 46, 5-(5,5′-difluoro-6′-methyl-[3,4′-bipyridin]-2′-yl)-3-(4-fluorophenyl)-1,2,4-oxadiazole]: the remaining activity at 30 µM came out at 3% and the IC50 worked out at 677 nM.

In the case of `Cc1csc(-c2nc(-c3cc(-c4cncc(F)c4)c(F)c(C)n3)no2)n1` [Compound 16, 3-(5,5′-difluoro-6′-methyl-[3,4′-bipyridin]-2′-yl)-5-(4-methylthiazol-2-yl)-1,2,4-oxadiazole], the remaining activity at 30 µM turned out to be 9% and the IC50 is 613 nM.

In the case of `Cc1ccncc1-c1cc(-c2noc(-c3ccc(F)cn3)n2)nc(C)c1F` [Compound 5, 3-(5′-fluoro-4,6′-dimethyl-[3,4′-bipyridin]-2′-yl)-5-(5-fluoropyridin-2-yl)-1,2,4-oxadiazole], the remaining activity at 30 µM stood at 3% and the IC50 turned out to be 98 nM.

On to `Cc1nc(-c2noc(-c3ccc(F)cn3)n2)cc(-c2ccc(C(F)(F)F)nc2)c1F` [Compound 29, 3-(5′-fluoro-6′-methyl-6-(trifluoromethyl)-[3,4′-bipyridin]-2′-yl)-5-(5-fluoropyridin-2-yl)-1,2,4-oxadiazole], for which the remaining activity at 30 µM came out at 37% and the IC50 turned out to be 1720 nM.

For the molecule `Cc1cc(O[C@@H]2CCOC2)cc(-c2noc(-c3nc(C)cs3)n2)n1` [Compound 106, (R)-3-(6-methyl-4-((tetrahydrofuran-3-yl)oxy)pyridin-2-yl)-5-(4-methylthiazol-2-yl)-1,2,4-oxadiazole], the remaining activity at 30 µM stood at 2% and the half-maximal inhibitory concentration (IC50) turned out to be 387 nM.

Consider `Cc1ccncc1-c1cc(-c2noc(-c3cccc(Cl)c3)n2)nc(C)c1F` [Compound 23, 5-(3-chlorophenyl)-3-(5′-fluoro-4,6′-dimethyl-[3,4′-bipyridin]-2′-yl)-1,2,4-oxadiazole], for which the remaining activity at 30 µM was 2% and the IC50 came to 117 nM.

On to `COCCOc1c(-c2cncc(F)c2)cc(-c2noc(-c3ccc(F)cn3)n2)nc1C` [Compound 54, 3-(5-fluoro-5′-(2-methoxyethoxy)-6′-methyl-[3,4′-bipyridin]-2′-yl)-5-(5-fluoropyridin-2-yl)-1,2,4-oxadiazole], for which the remaining activity at 30 µM worked out at 3% and the IC50 was found to be 562 nM.

As to `COc1ccncc1-c1cc(-c2nnc(-c3ccc(F)cn3)o2)nc(C)c1F` [Compound 73, 2-(5′-fluoro-4-methoxy-6′-methyl-[3,4′-bipyridin]-2′-yl)-5-(5-fluoropyridin-2-yl)-1,3,4-oxadiazole], the remaining activity at 30 µM was determined as 2% and the IC50 came to 298 nM.

Consider `COc1c(-c2cncc(F)c2)cc(-c2n[nH]c(-c3ccccc3F)n2)nc1C` [Compound 100, 5-fluoro-6′-(5-(2-fluorophenyl)-1H-1,2,4-triazol-3-yl)-3′-methoxy-2′-methyl-3,4′-bipyridine], for which the remaining activity at 30 µM worked out at 2% and the IC50 was found to be 300 nM.

As for `Cc1nc(-c2noc(-c3cccnc3)n2)cc(-c2cncc(F)c2)c1F` [Compound 50, 3-(5,5′-difluoro-6′-methyl-[3,4′-bipyridin]-2′-yl)-5-(pyridin-3-yl)-1,2,4-oxadiazole], the remaining activity at 30 µM is 34% and the IC50 came to 1560 nM.

Turning to `Cc1nc(-c2nnc(-c3ccc(F)cn3)o2)cc(-c2cncc(F)c2)c1OC(C)C` [Compound 45, 2-(5-fluoro-5′-isopropoxy-6′-methyl-[3,4′-bipyridin]-2′-yl)-5-(5-fluoropyridin-2-yl)-1,3,4-oxadiazole], the remaining activity at 30 µM came to 2% and the half-maximal inhibitory concentration (IC50) is 946 nM.

With `Cc1cc(-c2cncc(F)c2)cc(-c2noc(-c3nc(C)cs3)n2)n1` [Compound 72, 3-(5-fluoro-6′-methyl-[3,4′-bipyridin]-2′-yl)-5-(4-methylthiazol-2-yl)-1,2,4-oxadiazole], the remaining activity at 30 µM amounted to 11% and the 50% inhibitory concentration (IC50) came out at 917 nM.

As for `Cc1nc(-c2nc(-c3ccc(F)cn3)no2)cc(-c2cnn(C(F)F)c2)c1F` [Compound 9, 5-(4-(1-(difluoromethyl)-1H-pyrazol-4-yl)-5-fluoro-6-methylpyridin-2-yl)-3-(5-fluoropyridin-2-yl)-1,2,4-oxadiazole], the remaining activity at 30 µM amounted to 2% and the IC50 was found to be 328 nM.

For `COc1cncc(-c2cc(-c3nnc(-c4ccc(F)cn4)o3)nc(C)c2F)c1` [Compound 107, 2-(5′-fluoro-5-methoxy-6′-methyl-[3,4′-bipyridin]-2′-yl)-5-(5-fluoropyridin-2-yl)-1,3,4-oxadiazole], the remaining activity at 30 µM amounted to 2% and the IC50 is 336 nM.

Turning to `Cc1nc(-c2noc(-c3ccc(F)cn3)n2)cc(-c2cc(F)cnc2Cl)c1F` [Compound 32, 3-(2-chloro-5,5′-difluoro-6′-methyl-[3,4′-bipyridin]-2′-yl)-5-(5-fluoropyridin-2-yl)-1,2,4-oxadiazole], the remaining activity at 30 µM came to 3% and the IC50 was 359 nM.

For `Cc1ccncc1-c1cc(-c2noc(-c3cscn3)n2)nc(C)c1F` [Compound 27, 3-(5′-fluoro-4,6′-dimethyl-[3,4′-bipyridin]-2′-yl)-5-(thiazol-4-yl)-1,2,4-oxadiazole], the remaining activity at 30 µM came to 2% and the IC50 came to 308 nM.

In the case of `Fc1ccc(-c2nnc(-c3cc(-c4cncc(F)c4)cc(C(F)F)n3)o2)nc1` [Compound 84, 2-(6′-(difluoromethyl)-5-fluoro-[3,4′-bipyridin]-2′-yl)-5-(5-fluoropyridin-2-yl)-1,3,4-oxadiazole], the remaining activity at 30 µM came to 1% and the IC50 was 359 nM.

Take `Cc1csc(-c2nc(-c3cc(-c4cnc(C)s4)c(F)c(C)n3)no2)n1` [Compound 18, 3-(5-fluoro-6-methyl-4-(2-methylthiazol-5-yl)pyridin-2-yl)-5-(4-methylthiazol-2-yl)-1,2,4-oxadiazole]: the remaining activity at 30 µM is 13% and the IC50 turned out to be 1130 nM.

In the case of `Cc1nc(-c2nnc(-c3ccc(F)cn3)o2)cc(-c2cnccc2Cl)c1F` [Compound 77, 2-(4-chloro-5′-fluoro-6′-methyl-[3,4′-bipyridin]-2′-yl)-5-(5-fluoropyridin-2-yl)-1,3,4-oxadiazole], the remaining activity at 30 µM stood at 3% and the IC50 was found to be 138 nM.

For `Cc1ccncc1-c1cc(-c2n[nH]c(-c3ccc(F)cn3)n2)nc(C)c1F` [Compound 97, 3′-fluoro-6′-(5-(5-fluoropyridin-2-yl)-1H-1,2,4-triazol-3-yl)-2′,4-dimethyl-3,4′-bipyridine], the remaining activity at 30 µM is 2% and the 50% inhibitory concentration (IC50) was found to be 183 nM.

Turning to `[2H]C([2H])([2H])c1cc(-c2cncc(F)c2)cc(-c2nnc(-c3ccc(F)cn3)o2)n1` [Compound 85, 2-(5-fluoro-6′-(methyl-d3)-[3,4′-bipyridin]-2′-yl)-5-(5-fluoropyridin-2-yl)-1,3,4-oxadiazole], the remaining activity at 30 µM was found to be 1% and the IC50 amounted to 450 nM.
